Starred links: 1 amine or outer side, 2 acyl side, 3 side chain; linkers in the order of their positions; H or OH if unused. Positions of bridges follow the written chain, without caps; N, C: chain ends. Non-standard residues stand in square brackets, D forms with d. Residues, ends and D or L forms follow the SMILES beside them. *: point of attachment. hPhe(3-Cl-4-CF3) = N[C@@H](CCc1ccc(C(F)(F)F)c(Cl)c1)C(=O)O; NMePhe(4-Me) = CN[C@@H](Cc1ccc(C)cc1)C(=O)O; NMedβ3hAla = C[C@H](CC(=O)[*:2])N(C)[*:1]; NMeNva(5,5-F2) = CN[C@@H](CCC(F)F)C(=O)O; NMeCha = CN[C@@H](CC1CCCCC1)C(=O)O; Hyp = O=C(O)[C@@H]1C[C@@H](O)CN1; NMeChg = CN[C@H](C(=O)O)C1CCCCC1; NMeD = CN[C@@H](CC(=O)O)C(=O)O; NMeL = CN[C@@H](CC(C)C)C(=O)O; NMeV = CN[C@H](C(=O)O)C(C)C; d(β3hA) = C[C@@H](N)CC(=O)O; NMeS = CN[C@@H](CO)C(=O)O; Morpholide = C1CN(*)CCO1; NMeA = CN[C@@H](C)C(=O)O; Piperidide = C1CCN(*)CC1; dNMeA = CN[C@H](C)C(=O)O; Ac5c = NC1(C(=O)O)CCCC1; Aze = O=C(O)[C@@H]1CCN1; Cyclopropyl = C1CC1*; Sar = CNCC(=O)O; Propyl = CCC*
The molecules below were run on Human pancreatic cancer cell line AsPC-1 (assay: Measurement of AsPC-1 cell growth inhibition (AsPC-1 CGI)). Settings: 96 h.
Assay type: cell-based
Outline: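 AsPC-1 cells in 15% FBS RPMI-1640 were exposed to test compound for 96 hours at 37° C, with CellTiter-Glo as endpoint.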

SMILES | IC50
CCCOC[C@H]1C(=O)N[C@@H]([C@@H](C)CC)C(=O)N(C)[C@@H](C)C(=O)N2CC[C@H]2C(=O)N(C)[C@@H](CC2CCCCC2)C(=O)N(C)CC(=O)N[C@@H](CCc2ccc(C(F)(F)F)c(Cl)c2)C(=O)N2CCC[C@H]2C(=O)NC2(CCCC2)C(=O)N(C)[C@@H](C(C)C)C(=O)N(C)[C@H](C(=O)N2CCCCC2)CC(=O)N1C [Compound 1763] ([NMeS](Propyl)I[NMeA][Aze][NMeCha][Sar][hPhe(3-Cl-4-CF3)]P[Ac5c][NMeV][NMeD]-Piperidide; lactam N-11) | 100 to 500 nM
CC[C@H](C)[C@@H]1NC(=O)[C@H](COC2CC2)N(C)C(=O)C[C@@H](C(=O)N2CCCCC2)N(C)C(=O)[C@H](C(C)C)N(C)C(=O)C2(CCCC2)NC(=O)[C@@H]2CCCN2C(=O)[C@H](CCc2ccc(C(F)(F)F)c(Cl)c2)NC(=O)CN(C)C(=O)[C@H](CC2CCCCC2)N(C)C(=O)[C@@H]2CCN2C(=O)[C@H](C)N(C)C1=O [Compound 1764] ([NMeS](Cyclopropyl)I[NMeA][Aze][NMeCha][Sar][hPhe(3-Cl-4-CF3)]P[Ac5c][NMeV][NMeD]-Piperidide; lactam N-11) | 100 to 500 nM
CC[C@H](C)[C@@H]1NC(=O)[C@H](C(C)C)N(C)C(=O)C[C@@H](C(=O)N2CCCCC2)N(C)C(=O)[C@H](C(C)C)N(C)C(=O)C2(CCCC2)NC(=O)[C@@H]2CCCN2C(=O)[C@H](CCc2ccc(C(F)(F)F)c(Cl)c2)NC(=O)CN(C)C(=O)[C@H](CC2CCCCC2)N(C)C(=O)[C@@H]2CCN2C(=O)[C@H](C)N(C)C1=O [Compound 1767] ([NMeV]I[NMeA][Aze][NMeCha][Sar][hPhe(3-Cl-4-CF3)]P[Ac5c][NMeV][NMeD]-Piperidide; lactam N-11) | 100 to 500 nM
CC[C@H](C)[C@@H]1NC(=O)[C@H](C)N(C)C(=O)C[C@@H](C)N(C)C(=O)[C@H](C(C)C)N(C)C(=O)C2(CCCC2)NC(=O)[C@@H]2CCCN2C(=O)[C@H](CCc2ccc(C(F)(F)F)c(Cl)c2)NC(=O)[C@@H](C)N(C)C(=O)[C@H](CC2CCCCC2)N(C)C(=O)[C@@H]2CCN2C(=O)[C@H](C)N(C)C1=O [Compound 1773] (cyclo([Ac5c][NMeV][NMedβ3hAla][NMeA]I[NMeA][Aze][NMeCha][dNMeA][hPhe(3-Cl-4-CF3)]P)) | 100 to 500 nM
CCO[C@@H]1C[C@H]2C(=O)NC3(CCCC3)C(=O)N(C)[C@@H](CC(C)C)C(=O)N(C)[C@H](C(=O)N3CCOCC3)CC(=O)N(C)[C@@H](CC(C)C)C(=O)N[C@@H]([C@@H](C)CC)C(=O)N(C)CC(=O)N(C)CC(=O)N(C)[C@@H](CC3CCCCC3)C(=O)N(C)CC(=O)N[C@@H](CCc3ccc(C(F)(F)F)c(Cl)c3)C(=O)N2C1 [Compound 1785] ([NMeL]I[Sar][Sar][NMeCha][Sar][hPhe(3-Cl-4-CF3)][Hyp](Et)[Ac5c][NMeL][NMeD]-Morpholide; lactam N-11) | 50 to 100 nM
CC(C)C[C@H]1C(=O)N[C@@H](C(C)C)C(=O)N(C)[C@@H](C)C(=O)N2CC[C@H]2C(=O)N(C)[C@@H](CC2CCCCC2)C(=O)N(C)CC(=O)N[C@@H](CCc2ccc(C(F)(F)F)c(Cl)c2)C(=O)N2CCC[C@H]2C(=O)NC2(CCCC2)C(=O)N(C)[C@@H](C(C)C)C(=O)N(C)[C@H](C(=O)N2CCCCC2)CC(=O)N1C [Compound 1791] ([NMeL]V[NMeA][Aze][NMeCha][Sar][hPhe(3-Cl-4-CF3)]P[Ac5c][NMeV][NMeD]-Piperidide; lactam N-11) | 100 to 500 nM
CC[C@H](C)[C@@H]1NC(=O)[C@H](CC(C)C)N(C)C(=O)C[C@@H](C(=O)N2CCCCC2)N(C)C(=O)[C@H](C2CCCCC2)N(C)C(=O)C2(CCCC2)NC(=O)[C@@H]2CCCN2C(=O)[C@H](CCc2ccc(C(F)(F)F)c(Cl)c2)NC(=O)CN(C)C(=O)[C@H](Cc2ccc(C)cc2)N(C)C(=O)[C@@H]2CCN2C(=O)[C@H](C)N(C)C1=O [Compound 1795] ([NMeL]I[NMeA][Aze][NMePhe(4-Me)][Sar][hPhe(3-Cl-4-CF3)]P[Ac5c][NMeChg][NMeD]-Piperidide; lactam N-11) | 50 to 100 nM
CC[C@H](C)[C@@H]1NC(=O)[C@H](CCC(F)F)N(C)C(=O)C[C@@H](C(=O)N2CCCCC2)N(C)C(=O)[C@H](C(C)C)N(C)C(=O)C2(CCCC2)NC(=O)[C@@H]2CCCN2C(=O)[C@H](CCc2ccc(C(F)(F)F)c(Cl)c2)NC(=O)CN(C)C(=O)[C@H](CC2CCCCC2)N(C)C(=O)[C@@H]2CCN2C(=O)[C@H](C)N(C)C1=O [Compound 1797] ([NMeNva(5,5-F2)]I[NMeA][Aze][NMeCha][Sar][hPhe(3-Cl-4-CF3)]P[Ac5c][NMeV][NMeD]-Piperidide; lactam N-11) | 100 to 500 nM
CC[C@H](C)[C@@H]1NC(=O)[C@H](CC(C)C)N(C)C(=O)C[C@@H](C)N(C)C(=O)[C@H](C(C)C)N(C)C(=O)C2(CCCC2)NC(=O)[C@@H]2CCCN2C(=O)[C@H](CCc2ccc(C(F)(F)F)c(Cl)c2)NC(=O)CN(C)C(=O)[C@H](CC2CCCCC2)N(C)C(=O)[C@@H]2CCN2C(=O)[C@H](C)N(C)C1=O [Compound 1800] (cyclo([Ac5c][NMeV][NMedβ3hAla][NMeL]I[NMeA][Aze][NMeCha][Sar][hPhe(3-Cl-4-CF3)]P)) | 50 to 100 nM
CC[C@H](C)[C@@H]1NC(=O)[C@H](CC(C)C)N(C)C(=O)C[C@@H](C)NC(=O)[C@H](C(C)C)N(C)C(=O)C2(CCCC2)NC(=O)[C@@H]2CCCN2C(=O)[C@H](CCc2ccc(C(F)(F)F)c(Cl)c2)NC(=O)CN(C)C(=O)[C@H](Cc2ccc(C)cc2)N(C)C(=O)[C@@H]2CCN2C(=O)[C@H](C)N(C)C1=O [Compound 1801] (cyclo([Ac5c][NMeV][d(β3hA)][NMeL]I[NMeA][Aze][NMePhe(4-Me)][Sar][hPhe(3-Cl-4-CF3)]P)) | 50 to 100 nM
CCCOC[C@H]1C(=O)N(C)CC(=O)N[C@@H](CCc2ccc(C(F)(F)F)c(Cl)c2)C(=O)N2CCC[C@H]2C(=O)NC2(CCCC2)C(=O)N(C)[C@@H](C2CCCCC2)C(=O)N(C)[C@H](C(=O)N2CCCCC2)CC(=O)N(C)[C@@H](CC(C)C)C(=O)N[C@@H]([C@@H](C)CC)C(=O)N(C)CC(=O)N(C)CC(=O)N1C [Compound 1805, (3S,9S,18S,21S,25S,28S,34S)-3-[2-[3-chloro-4-(trifluoromethyl)phenyl]ethyl]-28-cyclohexyl-21-isobutyl-7,10,13,16,22,26,29-heptamethyl-18-[(1S)-1-methylpropyl]-25-(piperidine-1-carbonyl)-9-(propoxymethyl)spiro[1,4,7,10,13,16,19,22,26,29,32-undecazabicyclo[32.3.0]heptatriacontane-31,1′-cyclopentane]-2,5,8,11,14,17,20,23,27,30,33-undecone] ([NMeL]I[Sar][Sar][NMeS](Propyl)[Sar][hPhe(3-Cl-4-CF3)]P[Ac5c][NMeChg][NMeD]-Piperidide; lactam N-11) | 50 to 100 nM
CC[C@H](C)[C@@H]1NC(=O)[C@H](CC(C)C)N(C)C(=O)C[C@@H](C(=O)N2CCCCC2)N(C)C(=O)[C@H](C(C)C)N(C)C(=O)C2(CCCC2)NC(=O)[C@@H]2CCCN2C(=O)[C@H](CCc2ccc(C(F)(F)F)c(Cl)c2)NC(=O)CN(C)C(=O)[C@H](Cc2ccc(C)cc2)N(C)C(=O)[C@@H]2CCN2C(=O)[C@H](C)N(C)C1=O [Compound 1828] ([NMeL]I[NMeA][Aze][NMePhe(4-Me)][Sar][hPhe(3-Cl-4-CF3)]P[Ac5c][NMeV][NMeD]-Piperidide; lactam N-11) | 100 to 500 nM

Source: US12371454B2, “Cyclic peptide compound having Kras inhibitory action” (priority 2019, dated 2025)
